Laboratory results published in US6962909B2, “Treatment of neovascularization disorders with squalimine” (Genaera Corporation, priority 1995, dated 2005).
Converted amounts (≈) assume the structure as drawn.

Tests used:
P. aerug = assay: Antibiotic activity, MIC
E. coli = assay: Antibiotic activity, MIC; assay type: cell-based; settings: Escherichia coli
C. albicans = assay: Antibiotic activity, MIC; settings: Candida albicans
S. aureus = assay: Antibiotic activity, MIC; assay type: cell-based; settings: Staphylococcus aureus
[1] = tested on: Stage 59-60 Xenopus tadpoles; assay: Xenopus tadpole assay; assay type: in vivo, Xenopus laevis; settings: 10 μg/ml in water
Text: A newly developed assay employing tadpoles, preferably Xenopus laevis Stages 59-60, were employed to study the effect of a compound by monitoring capillary occlusion in the tadpole's tail. […] The compounds of the invention affect the shape, viability and integrity of the embryonic tissues while not affecting the adult tissues, providing a powerful, highly specific screen. For example, substances that destroy all of the animal's epithelium, both adult and embryonic, could be regarded as toxic.
In this assay, tadpoles are introduced into Petri dishes containing a solution of the test compound in distilled water, preferably about 100 ml. The preferred concentration of the test compound is from about 1 μg/ml to about 10 μg/ml. The volume of liquid is sufficient for the animal to swim freely and drink from the solution. Thus, the effect observed results from oral absorption and subsequent systemic distribution of the agent. If the volume of liquid is not sufficient to permit oral intake, the effects that are observed would result from absorption through the surface epithelium. Thus, this simple assay can identify if an compound has characteristics of oral availability.
After an amount of time, typically about 60 minutes, the occlusion of blood flow through capillaries in the tadpole's tail are observed under an inverted microscope at a magnification of roughly 100×.
The tadpole assay described above provides an advantageous way to determine the pharmacological targets of each steroid when introduced into a mammal, and to determine pharmacological categories into which synthetic compounds belong. In the assay, each of the steroids was dissolved in 100 ml of distilled water at a concentration of 10 μg/ml. Stage 59-60 Xenopus tadpoles were introduced and evaluated by light microscopy and gross observation 1 hour later.

[2] = tested on: human microvascular cells; assay: Endothelial cord formation assay; assay type: cell-based; also: key: + = Inhibition of angiogenesis; − = No inhibition of angiogenesis; T = Toxic; *= cell rounding @ 10 µg/ml
Text: Endothelial cells have the capacity in vitro to form tubular aggregates resembling capillaries in various early stages of formation. This conversion occurs under relatively specific conditions, in which essential growth factors along with an effective substratum are provided. It has been shown that both the interaction of growth factors with the endothelial cell and its attachment to a substratum activate the NHE. The activation of this exchanger is believed to be required for subsequent morphologic transformation of the endothelial cell into a multicellular tubular structure.
To assess the effect of compounds on the cord-like structures formed by human microvascular cells when plated in the presence of VGEF (Vascular Endothelial Growth Factor) and basic fibroblast growth factor on a collagen matrix, a standard cord formation assay was used.

[3] = tested on: vitelline capillaries of 3- to 5-day chick embryo; assay: Chick embryo vitelline capillary regression assay; assay type: in vivo; parameters: key to Vascular reactivity (capillary regression): + = Vascular reactivity; 0 = No vascular reactivity; +/− = Equivocal reactivity; settings: 60 minutes
Protocol: Using the chick embryo vitelline capillaries assay, compounds were tested for their ability to induce capillary regression. Each compound was applied in 0.1 ml of 15% Ficol 400 and PBS onto the embryo, and vascular regression was assessed after 60 minutes.
The 3-day chick embryo consists of an embryonic disc from which numerous vessels emerge and return, forming a “figure 8”-shaped structure—the embryo in the center with vascular loops extending outward over both poles. […] Following a lag period of around 15 minutes, the constriction of continuity between capillary and secondary vessels, generally on the “venous” side, was observed. Continued pulsatile blood flow progressed, resulting in a “swelling” of the blind tube, followed by a pinching off of the remaining connection and formation of an enclosed vascular sac resembling a “blood island.” This process progressed until only the largest vessels remained intact.

SMILES	MIC (P. aerug) [µg/mL]	MIC (E. coli) [µg/mL]	MIC (C. albicans) [µg/mL]	MIC (S. aureus) [µg/mL]	further results
CC(COS(=O)(=O)O)C(=O)CCC(C)[C@H]1CCC2C3C(CC[C@@]21C)[C@@]1(C)CC[C@H](NCCCNCCCCN)C[C@@H]1C[C@H]3O (some centres unmarked) [drawing 63]	128 (≈ 199 µM)	128 (≈ 199 µM)	32 (≈ 49.8 µM)	8 (≈ 12.5 µM)	
CC(CCC(=O)O)[C@H]1CCC2C3CC[C@H]4C[C@@H](NCCCNCCCCN)CC[C@]4(C)C3CC[C@@]21C (some centres unmarked)	32 (≈ 63.5 µM)	32 to 64 (≈ 63.5 to 127 µM)	8 (≈ 15.9 µM)	64 (≈ 127 µM)	
CC(C)C(O)CCC(C)[C@H]1CCC2C3C(CC[C@@]21C)[C@@]1(C)CC[C@H](NCCCNCCCCN)C[C@@H]1C[C@H]3O (some centres unmarked)	128 (≈ 234 µM)	32 (≈ 58.4 µM)	64 (≈ 117 µM)	4 to 16 (≈ 7.3 to 29.2 µM)	
COC(O)CCC(C)[C@H]1CCC2C3C(CC[C@@]21C)[C@@]1(C)CC[C@H](NCCCNCCCCNCCCN)C[C@@H]1C[C@H]3O (some centres unmarked)	128 (≈ 216 µM)	64 (≈ 108 µM)	16 (≈ 27 µM)	2 to 4 (≈ 3.37 to 6.75 µM)	
COC(=O)CCC(C)[C@H]1CCC2C3C[C@@H](O)[C@H]4C[C@@H](NCCN)CC[C@]4(C)C3CC[C@@]21C (some centres unmarked) [Compound 432]					Pharmacological category in tadpole assay (similarity to a reference steroid) [1]: functionally similar to compound 1437; Effect on endothelial cord formation ([2]; 1.0 μg/ml): −; Effect on endothelial cord formation ([2]; 10.0 μg/ml): −
CC(C)CCCC(C)[C@H]1CCC2C3CC[C@H]4C[C@@H](NCCCCN)CC[C@]4(C)C3CC[C@@]21C (some centres unmarked)	> 256	> 256	> 256	16 (≈ 34.9 µM)	
COC(=O)CCC(C)[C@H]1CCC2C3C(CC[C@@]21C)[C@@]1(C)CC[C@H](NCCN)C[C@H]1C[C@H]3O (some centres unmarked) [Compound 409]					Vascular reactivity (capillary regression) ([3]; 1 μg applied): 0; Pharmacological category in tadpole assay (similarity to a reference steroid) [1]: functionally similar to compound 1437
CC(C)CCCC(C)[C@H]1CCC2C3C(CC[C@@]21C)[C@@]1(C)CC[C@@H](N)C[C@@H]1C[C@H]3O (some centres unmarked)	> 256	> 256		2 (≈ 4.95 µM)	
COC(=O)CCC(C)[C@H]1CCC2C3C(CC[C@@]21C)[C@@]1(C)CCC(NCCCNCCCCNCCCN)C[C@@H]1C[C@H]3O (some centres unmarked)	64 (≈ 108 µM)	32 (≈ 54.2 µM)	64 (≈ 108 µM)	4 (≈ 6.77 µM)	
CC(C)C(CCC(C)[C@H]1CCC2C3C(CC[C@@]21C)[C@@]1(C)CC[C@@H](NCCCNCCCCN)C[C@@H]1C[C@H]3O)OS(=O)(=O)O (some centres unmarked)	16 (≈ 25.5 µM)	4 to 8 (≈ 6.37 to 12.7 µM)	16 (≈ 25.5 µM)	2 to 4 (≈ 3.18 to 6.37 µM)	
CC(C)CCCC(C)[C@H]1CCC2C3CC[C@H]4C[C@H](NCCCCN)CC[C@]4(C)C3CC[C@@]21C (some centres unmarked)	> 256	> 256	64 (≈ 139 µM)	4 (≈ 8.72 µM)	
CC(CCC(=O)O)[C@H]1CCC2C3C(CC[C@@]21C)[C@@]1(C)CC[C@@H](NCCN)C[C@H]1C[C@H]3O (some centres unmarked) [Compound 414]					Vascular reactivity (capillary regression) ([3]; 1 μg applied): 0; Pharmacological category in tadpole assay (similarity to a reference steroid) [1]: pharmacologic activity similar to Fraction 1
CC(C)CCCC(C)[C@H]1CCC2C3CC[C@H]4C[C@H](NCCCN5CCCCN=C5N)CC[C@]4(C)C3CC[C@@]21C (some centres unmarked)	> 256	> 256	32 (≈ 59.2 µM)	2 (≈ 3.7 µM)	
C=C(C)C(=O)CCC(C)[C@H]1CCC2C3C(CC[C@@]21C)[C@@]1(C)CC[C@H](NCCCNCCCCN)C[C@@H]1C[C@H]3O (some centres unmarked)	128 (≈ 235 µM)	32 (≈ 58.8 µM)		4 (≈ 7.35 µM)	
CC(C)CCCC(C)[C@H]1CCC2C3CC[C@H]4C[C@@H](NCCCNCCCCN)CC[C@]4(C)C3CC[C@@]21C (some centres unmarked)	128 (≈ 248 µM)	128 to 256 (≈ 248 to 496 µM)	256 (≈ 496 µM)	8 (≈ 15.5 µM)	
COC(=O)CCC(C)[C@H]1CCC2C3C(CC[C@@]21C)[C@@]1(C)CC[C@@H](NCCN)C[C@H]1C[C@H]3O (some centres unmarked) [Compound 410]					Vascular reactivity (capillary regression) ([3]; 0.001 μg applied): 0; Vascular reactivity (capillary regression) ([3]; 0.01 μg applied): +/−; Vascular reactivity (capillary regression) ([3]; 0.1 μg applied): +/−; Vascular reactivity (capillary regression) ([3]; 1 μg applied): +; Pharmacological category in tadpole assay (similarity to a reference steroid) [1]: functionally similar to compound 1437; Effect on endothelial cord formation ([2]; 0.1 μg/ml): −; Effect on endothelial cord formation ([2]; 1.0 μg/ml): +
CC(CCC(=O)O)[C@H]1CCC2C3C(CC[C@@]21C)[C@@]1(C)CC[C@@H](NCCCNCCCCN)C[C@@H]1C[C@H]3O (some centres unmarked)	32 (≈ 61.6 µM)	64 (≈ 123 µM)	32 (≈ 61.6 µM)	16 (≈ 30.8 µM)	
C[C@@H](O)C1CCC2C3CC[C@H]4C[C@H](NCCCNCCCCN)CC[C@]4(C)C3CC[C@@]21C (some centres unmarked)	128 (≈ 286 µM)	64 (≈ 143 µM)	128 (≈ 286 µM)	16 (≈ 35.7 µM)	
COC(=O)CCC(C)[C@H]1CCC2C3C(CC[C@@]21C)[C@@]1(C)CC[C@H](NCCCNCCCCN)C[C@@H]1C[C@H]3O (some centres unmarked)	64 (≈ 120 µM)	32 (≈ 59.9 µM)	32 (≈ 59.9 µM)	4 to 8 (≈ 7.49 to 15 µM)	
COC(=O)CCC(C)[C@H]1CCC2C3C(CC[C@@]21C)[C@@]1(C)CC[C@@H](NCCCNCCCCN)C[C@@H]1C[C@H]3O (some centres unmarked)	64 (≈ 120 µM)	64 (≈ 120 µM)	32 (≈ 59.9 µM)	4 (≈ 7.49 µM)	
CC(CC[C@@H](OS(=O)(=O)O)C(C)C)[C@H]1CCC2C3C(CC[C@@]21C)[C@@]1(C)CC[C@H](NCCCNCCCCN)C[C@@H]1C[C@H]3O (some centres unmarked) [drawing 43]	16 (≈ 25.5 µM)	2 to 4 (≈ 3.18 to 6.37 µM)	8 (≈ 12.7 µM)	0.5 to 1 (≈ 0.796 to 1.59 µM)	
CC(C)C(O)CCC(C)[C@H]1CCC2C3C(CC[C@@]21C)[C@@]1(C)CC[C@H](NCCCNCCCCN(C)C)C[C@@H]1C[C@H]3O (some centres unmarked)	128 (≈ 222 µM)	64 (≈ 111 µM)	64 (≈ 111 µM)	8 to 16 (≈ 13.9 to 27.8 µM)	
CC(C)CCCC(C)[C@H]1CCC2C3CC[C@H]4C[C@@H](NCCCNCCCCNCCCN)CC[C@]4(C)C3CC[C@@]21C (some centres unmarked) [drawing 47]	64 (≈ 112 µM)	128 (≈ 223 µM)	32 (≈ 55.8 µM)	16 (≈ 27.9 µM)	
CC(C)CCCC(C)[C@H]1CCC2C3CC[C@H]4C[C@H](NCCCNCCCCN)CC[C@]4(C)C3CC[C@@]21C (some centres unmarked)	128 (≈ 248 µM)	128 (≈ 248 µM)	128 (≈ 248 µM)	2 to 4 (≈ 3.88 to 7.75 µM)	
CC(CCC(=O)O)[C@H]1CCC2C3C(CC[C@@]21C)[C@@]1(C)CC[C@H](NCCCNCCCCNCCCN)C[C@H]1C[C@H]3O (some centres unmarked) [Compound 413]					Vascular reactivity (capillary regression) ([3]; 1 μg applied): 0; Pharmacological category in tadpole assay (similarity to a reference steroid) [1]: effects like those produced by compound 1436; Effect on endothelial cord formation ([2]; 0.1 μg/ml): −; Effect on endothelial cord formation ([2]; 1.0 μg/ml): −; Effect on endothelial cord formation ([2]; 10.0 μg/ml): +
CC(CCC(=O)O)[C@H]1CCC2C3C(CC[C@@]21C)[C@@]1(C)CC[C@@H](NCCCNCCCCNCCCN)C[C@H]1C[C@H]3O (some centres unmarked) [Compound 412]					Vascular reactivity (capillary regression) ([3]; 0.001 μg applied): 0; Vascular reactivity (capillary regression) ([3]; 0.01 μg applied): 0; Vascular reactivity (capillary regression) ([3]; 0.1 μg applied): 0; Vascular reactivity (capillary regression) ([3]; 1 μg applied): +; Pharmacological category in tadpole assay (similarity to a reference steroid) [1]: pharmacologic activity similar to that seen for FX 3; Effect on endothelial cord formation ([2]; 0.1 μg/ml): −; Effect on endothelial cord formation ([2]; 1.0 μg/ml): −; Effect on endothelial cord formation ([2]; 10.0 μg/ml): +
CC(CCC(=O)O)[C@H]1CCC2C3CC[C@H]4C[C@H](NCCCNCCCCN)CC[C@]4(C)C3CC[C@@]21C (some centres unmarked)	64 (≈ 127 µM)	32 (≈ 63.5 µM)	> 256	128 (≈ 254 µM)	
CC(CCC(=O)O)[C@H]1CCC2C3C[C@@H](O)[C@H]4C[C@@H](NCCN)CC[C@]4(C)C3CC[C@@]21C (some centres unmarked) [Compound 433]					Pharmacological category in tadpole assay (similarity to a reference steroid) [1]: functionally similar to compound 1437
CC(C)CCCC(C)[C@H]1CCC2C3C(CC[C@@]21C)[C@@]1(C)CC[C@H](NCCCNCCCCN)C[C@@H]1C[C@H]3O (some centres unmarked) [Compound 371]					Vascular reactivity (capillary regression) ([3]; 0.001 μg applied): 0; Vascular reactivity (capillary regression) ([3]; 0.01 μg applied): 0; Vascular reactivity (capillary regression) ([3]; 0.1 μg applied): 0; Vascular reactivity (capillary regression) ([3]; 1 μg applied): +/−; Vascular reactivity (capillary regression) ([3]; 10 μg applied): +; Pharmacological category in tadpole assay (similarity to a reference steroid) [1]: effects like those produced by compound 1436
